Test results from patent US20230066011A1, “PYRROLOPYRIMIDINE DERIVATIVE, AND PHARMACEUTICAL COMPOSITION FOR PREVENTING OR TREATING PROTEIN KINASE-RELATED DISEASE COMPRISING SAME AS ACTIVE INGREDIENT” (VORONOI CO., LTD., priority 2019, published 2023).

Tests used:
human GST-DYRK1A = molecular target: T1, human GST-DYRK1A (Homo sapiens, UniProt Q13627); assay: GST-DYRK1A enzyme inhibition, ADP-Glo kinase assay; format: biochemical; conditions: ATP 10 μM, GST-DYRK1A full length, read-out: DYRK1 IC50
T1 construct: purified human GST-DYRK1A (full length, Thermo Scientifics) enzyme; purchased Thermo Scientifics
Summary of the method: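 Full-length human GST-DYRK1A (10 ng) with 10 μM ATP and specific substrate in 40 mM Tris-HCl pH 7.4, 20 mM MgCl2, 0.5 mg/mL BSA, 50 μM DTT, 1 h at 25 °C. ADP formation read by ADP-Glo luminescence relative to solvent control; IC50 from three data sets.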

MDA-MB-231 cell line = assay: Inhibition of proliferation of MDA-MB-231 cancer cells (Cell Titer-Glo); format: cell-based; conditions: Homo sapiens, 72 hours
Summary of the method: (§1)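 Cells were grown in DMEM or RPMI, seeded at 2,000 cells/well and exposed to 11 threefold dilutions of compound (final 10 to 0.000169 μM) for 72 hours. Viability was read by Cell Titer-Glo luminescence after 10 min at room temperature, and GI50 was calculated from the luminescence data.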

human GST-CLK1 = molecular target: T2, human GST-CLK1 (Homo sapiens, UniProt P49759); assay: GST-CLK1 enzyme inhibition, ADP-Glo kinase assay; format: biochemical; conditions: ATP 10 μM, GST-CLK1 129-end
T2 construct: purified human GST-CLK1 (129-end, SignalChem) enzyme; purchased SignalChem
T2 sequence (P49759 129-484 limits assumed): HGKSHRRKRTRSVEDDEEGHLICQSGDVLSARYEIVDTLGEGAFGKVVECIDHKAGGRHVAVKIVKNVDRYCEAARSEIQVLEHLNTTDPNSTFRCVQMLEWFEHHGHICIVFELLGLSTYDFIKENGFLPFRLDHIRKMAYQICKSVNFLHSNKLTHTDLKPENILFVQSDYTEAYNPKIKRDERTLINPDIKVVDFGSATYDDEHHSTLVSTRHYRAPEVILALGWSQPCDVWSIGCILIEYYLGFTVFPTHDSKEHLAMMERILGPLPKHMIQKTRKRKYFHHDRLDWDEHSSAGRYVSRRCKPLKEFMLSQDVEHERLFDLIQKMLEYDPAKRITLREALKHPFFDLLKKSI
Summary of the method: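 Human GST-CLK1 (129-end, 3 ng) reacted with substrate and 10 μM ATP for 1 h at 25° C in 40 mM Tris-HCl pH 7.4, 20 mM MgCl2, 0.5 mg/mL BSA, 50 μM DTT. ADP-Glo luminescence was normalised to solvent control; IC50 (nM) from 3 data sets.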

TTK = molecular target: T3, TTK (Homo sapiens, UniProt P33981); assay: TTK enzyme inhibition, ADP-Glo kinase assay; format: biochemical; design: purchased SignalChem T20-10G; conditions: ATP 5 μM
T3 sequence (P33981 1-857): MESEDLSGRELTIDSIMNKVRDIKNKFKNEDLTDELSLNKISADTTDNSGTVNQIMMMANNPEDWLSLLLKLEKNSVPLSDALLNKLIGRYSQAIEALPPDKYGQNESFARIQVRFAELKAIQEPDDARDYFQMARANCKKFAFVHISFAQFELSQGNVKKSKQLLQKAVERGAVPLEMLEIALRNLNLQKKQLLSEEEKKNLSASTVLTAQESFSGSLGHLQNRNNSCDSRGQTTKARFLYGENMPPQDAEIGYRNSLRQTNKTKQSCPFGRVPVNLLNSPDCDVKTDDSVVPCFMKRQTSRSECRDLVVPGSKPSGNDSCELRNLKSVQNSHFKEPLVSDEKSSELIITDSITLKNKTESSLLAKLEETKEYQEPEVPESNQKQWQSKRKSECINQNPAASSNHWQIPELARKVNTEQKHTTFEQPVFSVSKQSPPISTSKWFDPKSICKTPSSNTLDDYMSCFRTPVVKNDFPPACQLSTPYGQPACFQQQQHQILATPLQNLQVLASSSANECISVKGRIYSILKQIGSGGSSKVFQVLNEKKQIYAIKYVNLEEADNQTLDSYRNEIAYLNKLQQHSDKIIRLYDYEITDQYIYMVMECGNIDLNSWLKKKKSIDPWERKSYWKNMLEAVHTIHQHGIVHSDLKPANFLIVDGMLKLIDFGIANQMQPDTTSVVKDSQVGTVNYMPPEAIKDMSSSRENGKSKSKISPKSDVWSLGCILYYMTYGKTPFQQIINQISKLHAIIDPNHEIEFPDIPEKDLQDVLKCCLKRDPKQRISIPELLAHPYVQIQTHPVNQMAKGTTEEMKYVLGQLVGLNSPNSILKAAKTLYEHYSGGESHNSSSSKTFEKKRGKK
Procedure: To evaluate an inhibitory activity of the compound according to the present invention against LRRK2, LRRK2 (G2019S), DYRK1, CLK1, and TTK kinases, experiments were performed as follows.
Each of the Example compounds was reacted with a purified human TTK (SignalChem #T20-10G) enzyme to evaluate an ability to inhibit an enzyme using a method as described below. A composition of 40 mM Tris-HCl (pH 7.4), 20 mM MgCl2, 0.1 mg/mL BSA (a 5× kinase buffer, SignalChem #K03-09), and 50 μM DTT (SignalChem #D86-09B) was used as a reaction buffer, and all reactions of test substances were performed in the reaction buffer. Each of the compounds was diluted […] from a 10 mM DMSO stock using a serial dilution method, and enzyme activities were measured at final compound concentrations of 1, 0.333333, 0.111111, 0.037037, 0.012346, 0.004115, 0.001372, 0.000457, 0.000152, 0.000051, and 0.000017 μM. In the test, purified ATP (5 μM, Promega #V6930) and an MBP enzyme substrate (0.2 μg, SignalChem M42-51N) were reacted with a human TTK (7.5 ng) enzyme at 25° C. for 4 hours, and the enzyme activities were then determined using an in vitro ADP-Glo™ kinase assay (Promega #V6930). An enzyme-activity reaction solution, an ADP-Glo reaction solution, and an enzyme-ability detection solution were reacted at a ratio of 2:2:1 to measure a degree of inhibition of the enzyme activity with luminescence. The degree of inhibition of the enzyme activity according to the treatment concentration of each of the compounds was calculated based on the fluorescence of the enzyme activity of the solvent control which was not treated with the compound. In this case, the concentration of each of the compounds inhibiting 50% of the enzyme activity was determined to be an IC50 (nM) value, and calculated using Prism (Version 8.2 GraphPad) software.

SHP-77 = assay: Inhibition of proliferation of SHP-77 cancer cells (Cell Titer-Glo); format: cell-based; conditions: Homo sapiens, SHP77, 72 hours
Summary of the method: as §1

MDA-MB-468 cell line = assay: Inhibition of proliferation of MDA-MB-468 cancer cells (Cell Titer-Glo); format: cell-based; conditions: Homo sapiens, MDA-MB-468, 72 hours
Summary of the method: as §1

Structure (SMILES)	IC50 (human GST-DYRK1A) [nM]	GI50 (MDA-MB-231 cell line) [nM]	IC50 (human GST-CLK1) [nM]	IC50 (TTK) [nM]	GI50 (SHP-77) [nM]	GI50 (MDA-MB-468 cell line) [nM]
CN1CCC(NC(=O)c2ccc(Nc3nc(NC4CCCC4)c4c(C#N)c[nH]c4n3)c3c2OCCO3)CC1 [Example 146, 8-((5-cyano-4-(cyclopentylamino)-7H-pyrrolo[2,3-d]pyrimidin-2-yl)amino)-N-(1-methylpiperidin-4-yl)-2,3-dihydrobenzo[b][1,4]dioxin-5-carboxamide]		101 to 300		< 100		101 to 300
N#Cc1c[nH]c2nc(Nc3ccc(C(=O)N4CCN(C5COC5)CC4)c4c3OCCO4)nc(NC3CCCC3)c12 [Example 147, 4-(cyclopentylamino)-2-((8-(4-(oxetan-3-yl)piperazine-1-carbonyl)-2,3-dihydrobenzo[b][1,4]dioxin-5-yl)amino)-7H-pyrrolo[2,3-d]pyrimidin-5-carbonitrile]	301 to 1000	101 to 300	< 100	< 100		51 to 100
N#Cc1c[nH]c2nc(Nc3ccc(C(=O)N4CCN(C5CC5)CC4)c4c3OCCO4)nc(NC3CCCC3)c12 [Example 148, 4-(cyclopentylamino)-2-((8-(4-cyclopropylpiperazine-1-carbonyl)-2,3-dihydrobenzo[b][1,4]dioxin-5-yl)amino)-7H-pyrrolo[2,3-d]pyrimidine-5-carbonitrile]	301 to 1000	101 to 300	301 to 1000	< 100		101 to 300
N#Cc1c[nH]c2nc(Nc3ccc(C(=O)N4CCCC4)c4c3OCCO4)nc(NC3CCCCC3)c12 [Example 149, 4-(cyclohexylamino)-2-((8-(pyrrolidine-1-carbonyl)-2,3-dihydrobenzo[b][1,4]dioxin-5-yl)amino)-7H-pyrrolo[2,3-d]pyrimidine-5-carbonitrile]	301 to 1000	< 50	301 to 1000	< 100		51 to 100
N#Cc1c[nH]c2nc(Nc3ccc(C(=O)N4CCOCC4)c4c3OCO4)nc(NC3CCCCC3)c12 [Example 150, 4-(cyclohexylamino)-2-((7-(morpholine-4-carbonyl)benzo[d][1,3]dioxol-4-yl)amino)-7H-pyrrolo[2,3-d]pyrimidine-5-carbonitrile]	301 to 1000	51 to 100	301 to 1000	< 100		51 to 100
CCN1CCP(=O)(c2ccc(Nc3nc(NC4CCCCC4)c4c(C#N)c[nH]c4n3)c(OC)c2)CC1 [Example 151, 4-(cyclohexylamino)-2-((4-(1-ethyl-4-oxido-1,4-azaphosphinan-4-yl)-2-methoxyphenyl)amino)-7H-pyrrolo[2,3-d]pyrimidine-5-carbonitrile]	301 to 1000	101 to 300	101 to 300	< 100		51 to 100
N#Cc1c[nH]c2nc(Nc3ccc(C(=O)N4CCOCC4)c4c3OCO4)nc(NC3CCCC3)c12 [Example 152, 4-(cyclopentylamino)-2-((7-(morpholine-4-carbonyl)benzo[d][1,3]dioxol-4-yl)amino)-7H-pyrrolo[2,3-d]pyrimidine-5-carbonitrile]	101 to 300	51 to 100	< 100	< 100		51 to 100
COc1cc(P2(=O)CCN(C3COC3)CC2)ccc1Nc1nc(NC2CCCC2)c2c(C#N)c[nH]c2n1 [Example 313, 4-(cyclo-pentylamino)-2-((2-methoxy-4-(1-(oxetan-3-yl)-4-oxido-1,4-azaphosphinan-4-yl)phenyl)amino)-7H-pyrrolo[2,3-d]pyrimidine-5-carbonitrile]	101 to 300		101 to 300	< 100		

The next lines start with the values.

IC50 (human GST-DYRK1A) [nM]	GI50 (MDA-MB-231 cell line) [nM]	IC50 (human GST-CLK1) [nM]	IC50 (TTK) [nM]	GI50 (SHP-77) [nM]	GI50 (MDA-MB-468 cell line) [nM]	Structure (SMILES)
301 to 1000	301 to 1000	301 to 1000	< 100			COc1cc(P2(=O)CCN(C3CCOCC3)CC2)ccc1Nc1nc(NC2CCCCC2)c2cc[nH]c2n1 [Example 61, 4-(4-((4-(cyclohexylamino)-7H-pyrrolo[2,3-d]pyrimidin-2-yl)amino)-3-methoxyphenyl)-1-(tetrahydro-2H-pyran-4-yl)-1,4-azaphosphinane 4-oxide]
301 to 1000	< 50	301 to 1000	< 100	< 50		CC[C@@H](C)Nc1nc(Nc2ccc(S(=O)(=O)N3CCOCC3)cc2OC)nc2[nH]cc(C#N)c12 [Example 67, (R)-4-(sec-butylamino)-2-((2-methoxy-4-(morpholinosulfonyl)phenyl)amino)-7H-pyrrolo[2,3-d]pyrimidine-5-carbonitrile]
301 to 1000	51 to 100	< 100	< 100		51 to 100	CN1CCC(NC(=O)c2ccc(Nc3nc(NC4CCCCC4)c4c(C#N)c[nH]c4n3)c3c2OCCO3)CC1 [Example 143, 8-((5-cyano-4-(cyclohexylamino)-7H-pyrrolo[2,3-d]pyrimidin-2-yl)amino)-N-(1-methylpiperidin-4-yl)-2,3-dihydrobenzo[b][1,4]dioxin-5-carboxamide]
301 to 1000	< 50	101 to 300	< 100		51 to 100	N#Cc1c[nH]c2nc(Nc3ccc(C(=O)N4CCN(C5COC5)CC4)c4c3OCCO4)nc(NC3CCCCC3)c12 [Example 144, 4-(cyclohexylamino)-2-((8-(4-(oxetan-3-yl)piperazine-1-carbonyl)-2,3-dihydrobenzo[b][1,4]dioxin-5-yl)amino)-7H-pyrrolo[2,3-d]pyrimidine-5-carbonitrile]
301 to 1000	51 to 100	301 to 1000	< 100		51 to 100	N#Cc1c[nH]c2nc(Nc3ccc(C(=O)N4CCN(C5CC5)CC4)c4c3OCCO4)nc(NC3CCCCC3)c12 [Example 145]
